{"source": "paper PMC8112869", "about": "“Therapeutic inhibition of keratinocyte TRPV3 sensory channel by local anesthetic dyclonine” (eLife, 2021)", "format_in_all_cases": "cell-based", "key": {"human TRPV3 (hTRPV3)": {"biological_target": "T1, human TRPV3 (hTRPV3) (Homo sapiens, UniProt Q8NET8)", "T1 construct": "expressed in transfected cells; host or cells: HEK 293T", "assay": "Whole-cell recording of 2-APB-evoked currents in hTRPV3-expressing HEK 293T cells", "description": "(§1) The WT mouse TRPV3 (mTRPV3), human TRPV3 (hTRPV3), rat TRPV1, rat TRPV2, rat TRPM8, and mouse TRPA1 cDNAs were generously provided by Dr. Feng Qin (State University of New York at Buffalo, Buffalo, USA). The GFP-mTRPV3 WT and the mutants (mTRPV3-G573S and mTRPV3-G573C) in pcDNA4/TO vector were gifts from Dr. Michael X Zhu (The University of Texas Health Science Center at Houston, Houston, USA). The WT fTRPV3 was kindly provided by Dr. Makoto Tominaga (Department of Physiological Sciences, SOKENDAI, Okazaki, Japan). All mutations were made using the overlap-extension polymerase chain reaction method as previously described ([Tian et al., 2019]). The resulting mutations were then verified by DNA sequencing. […]\n(§2) Conventional whole-cell and excised patch-clamp recording methods were used. […] For a subset of recordings, currents were amplified using an Axopatch 200B amplifier (Molecular Devices, Sunnyvale, CA) and recorded through a BNC-2090/MIO acquisition system (National Instruments, Austin, TX) using QStudio developed by Dr. Feng Qin at State University of New York at Buffalo. […] As determined by the conductance tests, the solution around a patch under study was fully controlled by the application of a flow rate of 100 μl/min or greater. […]"}, "TRPV3 (G573C)": {"biological_target": "T2, TRPV3 (G573C) (Mus musculus, UniProt Q8K424, G573C)", "T2 construct": "expressed in transfected cells; host or cells: T-Rex 293", "T2 sequence (Q8K424 whole entry G573C)": "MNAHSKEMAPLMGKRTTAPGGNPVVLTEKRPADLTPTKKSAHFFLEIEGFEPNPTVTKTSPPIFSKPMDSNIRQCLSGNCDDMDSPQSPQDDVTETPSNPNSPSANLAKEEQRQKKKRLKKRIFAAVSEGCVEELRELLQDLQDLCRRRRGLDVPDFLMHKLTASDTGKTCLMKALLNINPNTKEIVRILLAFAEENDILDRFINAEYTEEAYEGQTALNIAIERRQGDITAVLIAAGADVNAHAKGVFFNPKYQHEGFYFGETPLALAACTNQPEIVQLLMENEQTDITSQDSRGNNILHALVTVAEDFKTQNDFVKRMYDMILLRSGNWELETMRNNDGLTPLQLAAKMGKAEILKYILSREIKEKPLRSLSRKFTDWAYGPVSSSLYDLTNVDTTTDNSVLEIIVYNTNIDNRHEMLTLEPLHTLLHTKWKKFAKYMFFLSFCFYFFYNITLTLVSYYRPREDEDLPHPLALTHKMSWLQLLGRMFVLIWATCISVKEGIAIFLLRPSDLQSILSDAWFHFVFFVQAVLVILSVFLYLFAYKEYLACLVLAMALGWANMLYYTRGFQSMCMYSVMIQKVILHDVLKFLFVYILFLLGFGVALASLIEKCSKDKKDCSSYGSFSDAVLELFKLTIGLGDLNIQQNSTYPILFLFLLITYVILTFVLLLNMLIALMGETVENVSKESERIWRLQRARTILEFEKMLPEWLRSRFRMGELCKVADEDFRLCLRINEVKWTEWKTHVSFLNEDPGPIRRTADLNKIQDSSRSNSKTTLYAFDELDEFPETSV", "assay": "Whole-cell currents of TRPV3 (G573C) expressed in T-Rex 293 cells", "description": "as §1, §2"}, "TRPV3 I659A": {"biological_target": "T3, TRPV3 I659A (Mus musculus, UniProt Q8K424, I659A)", "T3 construct": "expressed in transfected cells; host or cells: HEK 293T", "T3 sequence (Q8K424 whole entry I659A)": "as the sequence (Q8K424 whole entry G573C) above, with C573G, I659A counted along it", "assay": "Whole-cell recording of TRPV3 mutant I659A in HEK 293T cells", "conditions": "2-APB (1 mM)-evoked, –60 mV, read-out: IC50 for inhibition of TRPV3 mutant", "description": "as §1, §2"}}, "data": [{"molecule": "CCCCOc1ccc(C(=O)CCN2CCCCC2)cc1", "note": "[dyclonine]", "values": [{"measurement": "Hill coefficient nH", "setting": "human TRPV3 (hTRPV3)", "result": "1.91 ± 0.14"}, {"measurement": "IC50", "setting": "human TRPV3 (hTRPV3); 2-APB (100 μM)-evoked, –60 mV, read-out: IC50 on blocking of hTRPV3", "result": "16.2 ± 0.72", "unit": "µM"}, {"measurement": "reduction of spontaneous activities", "setting": "TRPV3 (G573C); 10 μM dyclonine, –60 mV, leak subtracted with 20 μM RR", "result": "71% ± 2%"}, {"measurement": "300 μM 2-APB-evoked responses, of control level", "setting": "TRPV3 (G573C); presence of dyclonine", "result": "11% ± 1%"}, {"measurement": "IC50", "setting": "TRPV3 I659A", "result": "0.56 ± 0.06", "unit": "µM"}]}]}
